Results reported in US8309685B2 (Celgene Avilomics Research, Inc., priority 2007, dated 2012).
Where two headings read alike, the source gives them in different places.

Tests used:
[1] = target: T1, wild type HCV NS3/4A 1b protease enzyme (Hepatitis C virus genotype 1b, UniProt P26663); assay: biochemical; assay type: biochemical
T1 construct: 10× stocks of NS3/4A protease enzyme from Bioenza (Mountain View, Calif.); purchased Bioenza (Mountain View, Calif.)

[2] = target: T2, A156T mutant of the HCV NS3/4A 1b protease enzyme (Hepatitis C virus genotype 1b, UniProt P26663, A1182T); assay: HCV Protease FRET Assay (IC50), A156T mutant; assay type: biochemical
T2 construct: 10× stocks of NS3/4A protease enzyme from Bioenza (Mountain View, Calif.); purchased Bioenza (Mountain View, Calif.)
Description: HCV Protease FRET Assay for Wild Type and Mutated NS3/4A 1b Enzymes (IC50)
The protocol is a modified FRET-based assay (v—02) from In Vitro Resistance Studies of HCV Serine Protease Inhibitors, 2004, JBC, vol. 279, No. 17, pp 17508-17514.
10× stocks of NS3/4A protease enzyme from Bioenza (Mountain View, Calif.) and 1.13× 5-FAM/QXL™ 520 FRET peptide substrate from Anaspec (San Jose, Calif.) were prepared in 50 mM HEPES, pH 7.8, 100 mM NaCl, 5 mM DTT and 20% glycerol. 5 μL of each enzyme were pre-incubated in a Corning (#3573) 384-well, black, non-treated microtiter plate (Corning, N.Y.) for 30 min at 25° C. with a 0.5 μL volume of 50% DMSO and serially diluted compounds prepared in 50% DMSO. Protease reactions were started with the addition of 45 μL of the FRET substrate and monitored for 120 minutes at λex487/λem514 through Quad^4 monochromoters in a Synergy^4 plate reader from BioTek (Winooski, Vt.). At the conclusion of each assay, progress curves from each well were examined for linear reaction kinetics and fit statistics (R^2, absolute sum of squares). Initial velocity (0 minutes to 30+ minutes) from each reaction was determined from the slope of a plot of relative fluorescence units vs time (minutes) and then plotted against inhibitor concentration to estimate IC50 from log[Inhibitor] vs Response, Variable Slope model in GraphPad Prism from GraphPad Software (San Diego, Calif.).
The compound numbers correspond to the compound numbers in Table 3. […] ;

[3] = system: HCV RNA replicon in cell line ET (luc-ubi-neo/ET), human Huh7 hepatoma; assay: Method A: HCV RNA replicon antiviral assay (luciferase, ET cell line); assay type: cell-based, Hepatitis C virus
In short: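 ET replicon cells (Huh7 carrying luciferase-reporter HCV replicon) plated at 5×10^3 cells/well and exposed 72 hr to six 3-fold drug concentrations in DMEM/5% FBS. Replicon luciferase gave EC50/EC90; CytoTox-1 cell counts gave IC50 (viability); […]. Interferon alpha-2b served as positive control.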

[4] = system: cell line ET (luc-ubi-neo/ET), human Huh7 hepatoma cell line; assay: Method A: cytotoxicity in ET replicon cells (CytoTox-1); assay type: cell-based; details: concentration decreasing cell viability by 50%, 72 hr
Description: The compounds were assayed to evaluate the antiviral activity and cytotoxicity of compounds in vitro using HCV RNA replicons. This assay used the cell line ET (luc-ubi-neo/ET), which is a human Huh7 hepatoma cell line that contains an HCV RNA replicon with a stable luciferase (Luc) reporter and three cell culture-adaptive mutations. […]
The ET cell line was grown in Dulbecco's modified essential media (DMEM), 10% fetal bovine serum (FBS), 1% penicillin-streptomycin (pen-strep), 1% glutamine, 250 μg/ml G418 in a 5% CO2 incubator at 37° C. All cell culture reagents were obtained from Mediatech (Manassas, Va.). Cells were trypsinized (1% trypsin:EDTA) and plated out at 5×10^3 cells/well in white 96-well assay plates (Costar) dedicated to cell number (cytotoxicity) or antiviral activity assessments. Drugs were added at six 3-fold concentrations each and the assay was run in DMEM, 5% FBS, 1% pen-strep, 1% glutamine. Human interferon alpha-2b (PBL Biolabs, New Brunswick, N.J.) was included in each run as a positive control compound. Cells were processed 72 hr post drug addition when the cells are still subconfluent. Antiviral activity was measured by analyzing replicon-derived luciferase activity using the Steady-Glo Luciferase Assay System (Promega, Madison, Wis.) according to manufacturer's instruction. The number of cells in each well was determined by CytoTox-1 reagent (Promega). […].

[5] = target: T3, D168A mutant of the HCV NS3/4A 1b protease enzyme (Hepatitis C virus genotype 1b, UniProt P26663, D1194A); assay: HCV Protease FRET Assay (IC50), D168A mutant; assay type: biochemical
T3 construct: 10× stocks of NS3/4A protease enzyme from Bioenza (Mountain View, Calif.); purchased Bioenza (Mountain View, Calif.)

[6] = target: T3, D168A mutant of the HCV NS3/4A 1b protease enzyme; assay: HCV Protease FRET Assay (IC50_APP), D168A mutant; assay type: biochemical; details: apparent IC50, D168A mutant; read-out: IC50_APP, HCV D168A
[7] = target: T2, A156T mutant of the HCV NS3/4A 1b protease enzyme; assay: HCV Protease FRET Assay (IC50_APP), A156T mutant; assay type: biochemical; details: apparent IC50, A156T mutant; read-out: IC50_APP, HCV A156T
[8] = target: T1, wild type HCV NS3/4A 1b protease enzyme; assay: HCV Protease FRET Assay (IC50_APP), wild type; assay type: biochemical; details: read-out: IC50_APP, WT; apparent IC50, wild type NS3/4A 1b
[9] = read-out: Inhibition, WT; WT enzyme, FRET assay
[10] = read-out: Inhibition, HCV A156T; A156T enzyme, FRET assay
[11] = Hepatitis C virus, Huh-7, Replicon, assay of Example 22, 72 hr, read-out: Inhibition, Replicon
[12] = read-out: Inhibition, HCV D168A; D168A enzyme, FRET assay
[13] = Hepatitis C virus, Huh-7, assay described in Example 22
[14] = Hepatitis C virus, Huh-7, assay described in Example 22, read-out: Replicon (IC50)

Row | SMILES | IC50 [1, 9] | IC50 [2, 10] | IC50 [3, 11] | Inhibition, Cytotoxicity [4] | IC50 [5, 12] | IC50 [6] | IC50 [7] | IC90 [3, 13] | IC50 [3, 14] | IC50 [8] | IC50 ([1]; WT enzyme, FRET assay; read-out: Inhibition, WT) | IC50 ([2]; A156T enzyme, FRET assay; read-out: Inhibition, HCV A156T) | IC50 ([3]; Replicon, assay of Example 22, 72 hr, read-out: Inhibition, Replicon) | IC50 ([5]; D168A enzyme, FRET assay; read-out: Inhibition, HCV D168A)
1 | C=C[C@@H]1C[C@]1(NC(=O)[C@@H]1C[C@@H](Oc2cc(-c3ccccc3)nc3cc(OC)ccc23)CN1C(=O)[C@H](Cn1sc2ccccc2c1=O)NC(=O)OC(C)(C)C)C(=O)NS(=O)(=O)c1ccccc1 [Compound I-10, N-[(1,1-dimethylethoxy)carbonyl]-3-(benzoisothiazolin-3-one-2-yl)-L-alanyl-(4R)-4-[(7-methoxy-2-phenyl-4-quinolinyl)oxy]-L-prolyl-1-amino-2-ethenyl-N-(phenylsulfonyl)-(1R,2S)-cyclopropanecarboxamide] | < 10 nM | 10 to 100 nM | 100 to 1000 nM | D (IC50>1000 nM and <10,000 nM) | 10 to 100 nM |  |  |  |  |  |  |  |  | 
2 | C=C[C@@H]1C[C@]1(NC(=O)[C@@H]1C[C@@H](Oc2cc(-c3ccccc3)nc3cc(OC)ccc23)CN1C(=O)[C@H](CN(C)C(=O)/C=C/CN(C)C)NC(=O)OC(C)(C)C)C(=O)NS(=O)(=O)c1ccccc1 [Compound I-30, tert-butyl-(S)-3-((E)-4-(dimethylamino)-N-methylbut-2-enamido)-1-((2S,4R)-4-(7-methoxy-2-phenylquinolin-4-yloxy)-2-((1R,2S)-1-(phenylsulfonylcarbamoyl)-2-vinylcyclopropylcarbamoyl)pyrrolidin-1-yl)-1-oxopropan-2-ylcarbamate] | < 10 nM |  | 10 to 100 nM | E (IC50≧10,000 nM) | 100 to 1000 nM | 1000 to 10000 nM | 1000 to 10000 nM | 100 to 1000 nM | 10 to 100 nM | 10 to 100 nM |  |  |  | 
3 | C=C[C@@H]1C[C@]1(NC(=O)[C@@H]1C[C@@H](Oc2cc(-c3ccccc3)nc3cc(OC)ccc23)CN1C(=O)[C@H](CNC(=O)/C=C/CN(C)C)NC(=O)OC(C)(C)C)C(=O)NS(=O)(=O)c1ccccc1 [Compound I-5, N-[(1,1-dimethylethoxy)carbonyl]-3-[(4-dimethylamino-2-butenoyl)amino]-L-alanyl-(4R)-4-[(7-methoxy-2-phenyl-4-quinolinyl)oxy]-L-prolyl-1-amino-2-ethenyl-N-(phenylsulfonyl)-(1R,2S)-cyclopropanecarboxamide] | < 10 nM | 1000 to 10000 nM | 1000 to 10000 nM | E (IC50≧10,000 nM) | 1000 to 10000 nM |  |  |  |  |  |  |  |  | 
4 | C=C[C@@H]1C[C@]1(NC(=O)[C@@H]1C[C@@H](Oc2cc(-c3ccccc3)nc3cc(OC)ccc23)CN1C(=O)[C@H](CNC(=O)CC)NC(=O)OC(C)(C)C)C(=O)NS(=O)(=O)c1ccccc1 [I^R-3, N-[(1,1-dimethylethoxy)carbonyl]-3-[(propionyl)amino]-L-alanyl-(4R)-4-[(7-methoxy-2-phenyl-4-quinolinyl)oxy]-L-prolyl-1-amino-2-ethenyl-N-(phenylsulfonyl)-(1R,2S)-cyclopropanecarboxamide] |  |  |  | E (IC50≧10,000 nM) |  |  |  |  |  |  | < 10 nM | 10 to 100 nM | 1000 to 10000 nM | 100 to 1000 nM
5 | C=C[C@@H]1C[C@]1(NC(=O)[C@@H]1C[C@@H](Oc2cc(-c3ccccc3)nc3cc(OC)ccc23)CN1C(=O)[C@H](CCNC(=O)C(C)Br)NC(=O)OC(C)(C)C)C(=O)NS(=O)(=O)c1ccccc1 (some centres unmarked) [Compound I-20] | < 10 nM | 100 to 1000 nM | 100 to 1000 nM | D (IC50>1000 nM and <10,000 nM) | 100 to 1000 nM |  |  |  |  |  |  |  |  | 
6 | C=CC(=O)N1CCC(NC(=O)OC(C)(C)C)(C(=O)N2C[C@H](Oc3cc(-c4ccccc4)nc4cc(OC)ccc34)C[C@H]2C(=O)N[C@]2(C(=O)NS(=O)(=O)c3ccccc3)C[C@H]2C=C)CC1 [Compound I-26, tert-butyl-1-acryloyl-4-((2S,4R)-4-(7-methoxy-2-phenylquinolin-4-yloxy)-2-((1R,2S)-1-(phenylsulfonylcarbamoyl)-2-vinylcyclopropylcarbamoyl)pyrrolidine-1-carbonyl)piperidin-4-ylcarbamate] | < 10 nM |  | > 10000 nM | E (IC50≧10,000 nM) | 100 to 1000 nM |  |  |  |  |  |  |  |  | 
7 | C#CCN(C)C(=O)CCCC(=O)N[C@@H](CNC(=O)C=C)C(=O)N1C[C@H](Oc2cc(-c3ccccc3)nc3cc(OC)ccc23)C[C@H]1C(=O)N[C@]1(C(=O)NS(=O)(=O)c2ccccc2)C[C@H]1C=C [Compound I-42] | < 10 nM | 100 to 1000 nM | > 10000 nM | E (IC50≧10,000 nM) |  | 100 to 1000 nM |  | > 10000 nM | > 10000 nM | 10 to 100 nM |  |  |  | 
8 | C=C[C@@H]1C[C@]1(NC(=O)[C@@H]1C[C@@H](Oc2cc(-c3ccccc3)nc3cc(OC)ccc23)CN1C(=O)[C@H](CN(C)C(=O)CCl)NC(=O)OC(C)(C)C)C(=O)NS(=O)(=O)c1ccccc1 [Compound I-29, tert-butyl-(S)-3-(2-chloro-N-methylacetamido)-1-((2S,4R)-4-(7-methoxy-2-phenylquinolin-4-yloxy)-2-((1R,2S)-1-(phenylsulfonylcarbamoyl)-2-vinylcyclopropylcarbamoyl)pyrrolidin-1-yl)-1-oxopropan-2-ylcarbamate] | < 10 nM | < 10 nM | 10 to 100 nM | C (IC50>100 nM and ≦1000 nM) | < 10 nM |  |  |  |  |  |  |  |  | 
9 | C=C[C@@H]1C[C@]1(NC(=O)[C@@H]1C[C@@H](Oc2cc(-c3ccccc3)nc3cc(OC)ccc23)CN1C(=O)[C@H](CN(C)C(=O)C(=C)C)NC(=O)OC(C)(C)C)C(=O)NS(=O)(=O)c1ccccc1 [Compound I-32, tert-butyl-(S)-1-((2S,4R)-4-(7-methoxy-2-phenylquinolin-4-yloxy)-2-((1R,2S)-1-(phenylsulfonylcarbamoyl)-2-vinylcyclopropylcarbamoyl)pyrrolidin-1-yl)-3-(N-methylmethacrylamido)-1-oxopropan-2-ylcarbamate] | < 10 nM |  | 100 to 1000 nM | E (IC50≧10,000 nM) | 1000 to 10000 nM |  |  |  |  |  |  |  |  | 
